Laboratory results reported in ChEMBL document CHEMBL4483862, “Open-source discovery of chemical leads for next-generation chemoprotective antimalarials” (2018).
pIC50: −log10 of the molar value.

System: Plasmodium berghei
Assay: Luciferase/luciferin-expressing antifolate-resistant parasites were used to infect a culture of HepG2 cells that were pre-incubated with compounds. Infected hepatocytes emit light due to the luciferase reaction. Assay results are presented as the percent inhibition of light emission compared to control. […]
Assay type: functional
Details: sporozoite; for IC90: read-out: LUCIFERASE INFECTION ASSAY - IC90

Row | SMILES | IC90 [µM] | further results
1 | C=CCn1c(C)cc(C(=O)CSc2nc3ccccc3[nH]2)c1C | 0.467 | pIC50 (PBLUC_HILL_SLOPE 12.6, PBLUC_R_SQUARED 0.563, read-out: LUCIFERASE INFECTION ASSAY - IC50): 6.41
2 | CN(C1=C(NC(=O)c2ccccc2)C(=O)c2ccccc2C1=O)C1CCS(=O)(=O)C1 (centres undefined) | > 10 | pIC50 (PBLUC_HILL_SLOPE 12.4, PBLUC_R_SQUARED 0.0349, read-out: LUCIFERASE INFECTION ASSAY - IC50): 5.03
3 | c1cncc(-c2cnc3sc(NCc4ccncc4)nn23)c1 | > 10.7 | pIC50 (PBLUC_HILL_SLOPE 12.5, PBLUC_R_SQUARED 0.401, read-out: LUCIFERASE INFECTION ASSAY - IC50): 5.00
4 | CCOC(=O)CC(=O)CSc1nnc(-c2ccccc2Cl)n1-c1ccccc1F | 0.0166 | pIC50 (PBLUC_HILL_SLOPE 12.3, PBLUC_R_SQUARED 0.795, read-out: LUCIFERASE INFECTION ASSAY - IC50): 7.86
5 | CC(C#N)(NC(=O)CN1CCN(S(=O)(=O)c2ccc(Cl)s2)CC1)C1CC1 (centres undefined) | > 10 | pIC50 (PBLUC_HILL_SLOPE 12.5, PBLUC_R_SQUARED 0.341, read-out: LUCIFERASE INFECTION ASSAY - IC50): 5.03
6 | COc1ccccc1-n1c(SCC(=O)c2c[nH]c3ccccc23)nnc1-c1cccs1 | 0.134 | pIC50 (PBLUC_HILL_SLOPE 12.6, PBLUC_R_SQUARED 0.859, read-out: LUCIFERASE INFECTION ASSAY - IC50): 6.95
7 | CC(=O)CSc1nnc(-c2ccc(C(C)(C)C)cc2)n1-c1ccc(Cl)cc1 | > 8.25 | pIC50 (PBLUC_HILL_SLOPE 12.6, PBLUC_R_SQUARED 0.0257, read-out: LUCIFERASE INFECTION ASSAY - IC50): 5.11
8 | CCOC(=O)c1[nH]c2cc(OC)c(OC)cc2c1NC(=O)c1ccccc1OC | > 8.28 | pIC50 (PBLUC_HILL_SLOPE 12.7, PBLUC_R_SQUARED 0.193, read-out: LUCIFERASE INFECTION ASSAY - IC50): 5.09
9 | CC(C)CN1C(=O)N(Cc2ccccc2)C2(CCN(C3Cc4ccccc4C3)CC2)C1=O | > 7.65 | pIC50 (PBLUC_HILL_SLOPE 12.6, PBLUC_R_SQUARED 0.313, read-out: LUCIFERASE INFECTION ASSAY - IC50): 5.14
10 | NC(=O)c1cccc(-c2cn3c(-c4cccc(OC(F)(F)F)c4)cnc3cn2)c1 | 8.06 | pIC50 (PBLUC_HILL_SLOPE 12.4, PBLUC_R_SQUARED 0.473, read-out: LUCIFERASE INFECTION ASSAY - IC50): 5.17
11 | Cc1c(C(=O)OC(C)C(=O)N2CCN(Cc3ccccc3)CC2)sc2nc3n(c(=O)c12)CCC3 (centres undefined) | > 10 | pIC50 (PBLUC_HILL_SLOPE 12.6, PBLUC_R_SQUARED 0.201, read-out: LUCIFERASE INFECTION ASSAY - IC50): 5.05
12 | OCCNCCNCc1c(OCc2ccccc2Cl)ccc2ccccc12 | > 8.57 | pIC50 (PBLUC_HILL_SLOPE 12.5, PBLUC_R_SQUARED 0.654, read-out: LUCIFERASE INFECTION ASSAY - IC50): 5.13
13 | COc1ccc(C(CNC(=O)c2cc3c(C)nn(-c4ccc(Cl)cc4)c3s2)N(C)C)cc1 (centres undefined) | 4.14 | pIC50 (PBLUC_HILL_SLOPE 12.4, PBLUC_R_SQUARED 0.574, read-out: LUCIFERASE INFECTION ASSAY - IC50): 5.46
14 | Nc1ncc(-c2ccc(CO)cc2)cc1-c1ccc(F)c(Cl)c1 | > 10 | pIC50 (PBLUC_HILL_SLOPE 12.5, PBLUC_R_SQUARED 0.497, read-out: LUCIFERASE INFECTION ASSAY - IC50): 5.04
15 | O=C(Nc1cccc(C(F)(F)F)c1)c1cccc(Cn2cc(C(F)(F)F)ccc2=O)c1 | > 7.49 | pIC50 (PBLUC_HILL_SLOPE 12.4, PBLUC_R_SQUARED 0.188, read-out: LUCIFERASE INFECTION ASSAY - IC50): 5.20
16 | CC(C)c1cc(NCc2ccccn2)n2ncc(-c3ccccc3)c2n1 | 3.94 | pIC50 (PBLUC_HILL_SLOPE 12.5, PBLUC_R_SQUARED 0.318, read-out: LUCIFERASE INFECTION ASSAY - IC50): 5.48

Row | SMILES | IC90 [µM] | further results
17 | Cc1ccc2nc(CN3CCN(C(c4ccc(F)cc4)c4ccc(F)cc4)CC3)cc(=O)n2c1 | 4.14 | pIC50 (PBLUC_HILL_SLOPE 12.7, PBLUC_R_SQUARED 0.219, read-out: LUCIFERASE INFECTION ASSAY - IC50): 5.46
18 | CN(Cc1ccc2c(c1)OCCO2)C(=O)c1ccc(NC(=O)C23CC4CC(CC(C4)C2)C3)cc1 | > 10 | pIC50 (PBLUC_HILL_SLOPE 12.4, PBLUC_R_SQUARED 0.0833, read-out: LUCIFERASE INFECTION ASSAY - IC50): < 5.00
19 | CCN1C(=O)N(CCN(C)C)C(=O)C12CCN(Cc1ccc3c(c1)c1ccccc1n3CC)CC2 | 6.84 | pIC50 (PBLUC_HILL_SLOPE 12.4, PBLUC_R_SQUARED 0.445, read-out: LUCIFERASE INFECTION ASSAY - IC50): 5.24
20 | COc1cc(C2NCC(c3ccc(Cl)cc3Cl)c3c2[nH]c2ccccc32)ccc1OCC(C)C (centres undefined) | 3.76 | pIC50 (PBLUC_HILL_SLOPE 12.5, PBLUC_R_SQUARED 0.54, read-out: LUCIFERASE INFECTION ASSAY - IC50): 5.50
21 | Cc1cc(S(=O)(=O)Oc2ccccc2C(N)=O)ccc1-n1cnnn1 | > 10 | pIC50 (PBLUC_HILL_SLOPE 12.6, PBLUC_R_SQUARED 0.0652, read-out: LUCIFERASE INFECTION ASSAY - IC50): 5.04
22 | Fc1ccc(-c2csc3ncnc(NC4CCN(Cc5ccccc5)C4)c23)cc1 (centres undefined) | > 10 | pIC50 (PBLUC_HILL_SLOPE 12.7, PBLUC_R_SQUARED 0.103, read-out: LUCIFERASE INFECTION ASSAY - IC50): 5.04
23 | CCC(C)NC(=O)c1c(NC(=O)C(C)Oc2ccccc2)nc2ccc(C)cn12 (centres undefined) | > 8.37 | pIC50 (PBLUC_HILL_SLOPE 12.7, PBLUC_R_SQUARED 0.125, read-out: LUCIFERASE INFECTION ASSAY - IC50): 5.10
24 | Cc1ccc2[nH]c(-c3cccs3)c(CCC(=O)N(C)C3CCS(=O)(=O)C3)c2c1 (centres undefined) | 3.85 | pIC50 (PBLUC_HILL_SLOPE 12.5, PBLUC_R_SQUARED 0.681, read-out: LUCIFERASE INFECTION ASSAY - IC50): 5.49
25 | Cc1cc(=O)nc(N(C(=O)Nc2ccccc2)c2cccc(C(F)(F)F)c2)n1C(=O)Nc1ccccc1 | > 10 | pIC50 (PBLUC_HILL_SLOPE 12.5, PBLUC_R_SQUARED 0.105, read-out: LUCIFERASE INFECTION ASSAY - IC50): 5.03
26 | CCCNC(=O)CN1CCN(c2nc(-c3cccs3)nc3sc(C)c(C)c23)CC1 | > 10 | pIC50 (PBLUC_HILL_SLOPE 12.5, PBLUC_R_SQUARED 0.18, read-out: LUCIFERASE INFECTION ASSAY - IC50): 5.02
27 | Cc1n[nH]c(C(=O)NCc2ccc(OC(C)C)cc2)c1Br | > 10 | pIC50 (PBLUC_HILL_SLOPE 12.5, PBLUC_R_SQUARED 0.288, read-out: LUCIFERASE INFECTION ASSAY - IC50): 5.05
28 | O=c1nc(CCc2ccc3c(c2)OCCO3)[nH]c2ccccc12 | 3.7 | pIC50 (PBLUC_HILL_SLOPE 12.5, PBLUC_R_SQUARED 0.668, read-out: LUCIFERASE INFECTION ASSAY - IC50): 5.51
29 | NC(=O)c1ccc(-c2cc(-c3ccc(F)c(Cl)c3)cnc2N)cc1 | 4.41 | pIC50 (PBLUC_HILL_SLOPE 12.5, PBLUC_R_SQUARED 0.242, read-out: LUCIFERASE INFECTION ASSAY - IC50): 5.43
30 | CCOc1ccc(Oc2ccc(S(=O)(=O)Oc3ccccc3C(N)=O)cc2)cc1 | 3.39 | pIC50 (PBLUC_HILL_SLOPE 12.7, PBLUC_R_SQUARED 0.259, read-out: LUCIFERASE INFECTION ASSAY - IC50): 5.55
31 | Cc1nc(NCc2ccc3c(c2)OCO3)c2c3c(sc2n1)CCCC3 | > 10 | pIC50 (PBLUC_HILL_SLOPE 12.4, PBLUC_R_SQUARED 0.761, read-out: LUCIFERASE INFECTION ASSAY - IC50): 5.05
32 | COc1ccc(-c2nc(CN(c3ccccc3)S(=O)(=O)c3ccccc3)co2)cc1 | > 10 | pIC50 (PBLUC_HILL_SLOPE 12.4, PBLUC_R_SQUARED 0.25, read-out: LUCIFERASE INFECTION ASSAY - IC50): < 5.00
